Experimental data from US20260250290A1 (BRISTOL-MYERS SQUIBB COMPANY, priority 2023, published 2026).
Values joined by “and” are separate entries in the source; they are usually repeats but may differ in a detail not shown here. Equal values may be shown once.

Target: T1, full length SGK1 (Homo sapiens, UniProt O00141)
T1 construct: 125 μM full length SGK1 (Life Technologies Part #PR7358A); purchased Life Technologies PR7358A
T1 sequence (O00141 1-431): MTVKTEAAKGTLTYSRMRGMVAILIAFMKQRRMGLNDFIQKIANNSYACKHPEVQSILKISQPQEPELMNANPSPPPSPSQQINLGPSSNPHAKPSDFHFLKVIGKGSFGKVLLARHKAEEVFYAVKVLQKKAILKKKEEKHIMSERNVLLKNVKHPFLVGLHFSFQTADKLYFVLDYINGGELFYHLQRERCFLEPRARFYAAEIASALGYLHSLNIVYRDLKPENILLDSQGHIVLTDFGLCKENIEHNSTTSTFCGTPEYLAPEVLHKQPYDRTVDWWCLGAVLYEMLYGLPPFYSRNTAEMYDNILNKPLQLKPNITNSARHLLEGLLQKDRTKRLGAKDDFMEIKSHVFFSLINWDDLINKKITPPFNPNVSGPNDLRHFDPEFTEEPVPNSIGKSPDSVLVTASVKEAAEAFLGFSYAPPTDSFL
Assay: SGK1 inhibition Assay A (Caliper LabChip electrophoretic separation of fluorescent peptide substrate and phosphorylated product)
Format: biochemical
Details: Assay A; 20 μM ATP, 40 min incubation; read-out: SGK1 IC50

Point of comparison: `CC(=O)N1CC=C(c2cc(N3CCC[C@@H](NC(=O)c4sc(Cl)cc4OC4CCCN(C)C4)C3)c3c(N)ncnn23)C1` (stereo partly shown) [Example 597], IC50 10 nM. Against it:
- COC(=O)N1CC=C(c2cc(N3CCC[C@@H](NC(=O)c4sc(Cl)cc4OC4CN(C5CCOCC5)C4)C3)c3c(N)ncnn23)C1 [Example 573, Methyl (R)-3-(4-amino-5-(3-(5-chloro-3-((1-(tetrahydro-2H-pyran-4-yl)azetidin-3-yl)oxy)thiophene-2-carboxamido)piperidin-1-yl)pyrrolo[2,1-f][1,2,4]triazin-7-yl)-2,5-dihydro-1H-pyrrole-1-carboxylate] — 7.3-fold higher, 73 nM
- CC(=O)N1CC=C(c2cc(N3CCC[C@@H](NC(=O)c4sc(Cl)cc4OC4CN(C)C4)C3)c3c(N)ncnn23)C1 [Example 576, (R)-N-(1-(7-(1-acetyl-2,5-dihydro-1H-pyrrol-3-yl)-4-aminopyrrolo[2,1-f][1,2,4]triazin-5-yl)piperidin-3-yl)-5-chloro-3-((1-methylazetidin-3-yl)oxy)thiophene-2-carboxamide] — within 1.5-fold, 7 nM
- CC(=O)N1CC=C(c2cc(N3CCC[C@@H](NC(=O)c4sc(Cl)cc4OC4CN(C(C)C)C4)C3)c3c(N)ncnn23)C1 [Example 577, (R)-N-(1-(7-(1-acetyl-2,5-dihydro-1H-pyrrol-3-yl)-4-aminopyrrolo[2,1-f][1,2,4]triazin-5-yl)piperidin-3-yl)-5-chloro-3-((1-isopropylazetidin-3-yl)oxy)thiophene-2-carboxamide] — 1.7-fold lower, 6 nM
- CC(=O)N1CC=C(c2cc(N3CCC[C@@H](NC(=O)c4sc(Cl)cc4OC4CN(CCO)C4)C3)c3c(N)ncnn23)C1 [Example 578, (R)-N-(1-(7-(1-acetyl-2,5-dihydro-1H-pyrrol-3-yl)-4-aminopyrrolo[2,1-f][1,2,4]triazin-5-yl)piperidin-3-yl)-5-chloro-3-((1-(2-hydroxyethyl)azetidin-3-yl)oxy)thiophene-2-carboxamide] — 1.7-fold higher, 17 nM
- CC(=O)N1CC=C(c2cc(N3CCC[C@@H](NC(=O)c4sc(Cl)cc4OC4CCN(C)CC4)C3)c3c(N)ncnn23)C1 [Example 579, (R)-N-(1-(7-(1-acetyl-2,5-dihydro-1H-pyrrol-3-yl)-4-aminopyrrolo[2,1-f][1,2,4]triazin-5-yl)piperidin-3-yl)-5-chloro-3-((1-methylpiperidin-4-yl)oxy)thiophene-2-carboxamide] — 2.5-fold lower, 4 nM
- CC(=O)N1CC=C(c2cc(N3CCC[C@@H](NC(=O)c4sc(Cl)cc4OC4CC5(CNC5)C4)C3)c3c(N)ncnn23)C1 [Example 580] — 2-fold lower, 5 nM
- CC(=O)N1CC=C(c2cc(N3CCC[C@@H](NC(=O)c4sc(Cl)cc4OC4CC5(C4)CN(C)C5)C3)c3c(N)ncnn23)C1 [Example 581, (R)-N-(1-(7-(1-acetyl-2,5-dihydro-1H-pyrrol-3-yl)-4-aminopyrrolo[2,1-f][1,2,4]triazin-5-yl)piperidin-3-yl)-5-chloro-3-((2-methyl-2-azaspiro[3.3]heptan-6-yl)oxy)thiophene-2-carboxamide] — 2.5-fold lower, 4 nM
- CC(=O)N1CC=C(c2cc(N3CCC[C@@H](NC(=O)c4sc(Cl)cc4OC4CCN(C5COC5)CC4)C3)c3c(N)ncnn23)C1 [Example 582] — the same, 10 nM
- Nc1ncnn2c(-c3cncnc3)cc(N3CCC[C@@H](NC(=O)c4sc(Cl)cc4OC4CCN(C5COC5)CC4)C3)c12 [Example 584] — 2.6-fold higher, 26 nM
- CN1CCC(Oc2cc(Cl)sc2C(=O)N[C@@H]2CCCN(c3cc(-c4cncnc4)n4ncnc(N)c34)C2)CC1 [Example 585, (R)-N-(1-(4-amino-7-(pyrimidin-5-yl)pyrrolo[2,1-f][1,2,4]triazin-5-yl)piperidin-3-yl)-5-chloro-3-((1-methylpiperidin-4-yl)oxy)thiophene-2-carboxamide] — within 1.5-fold, 9 nM
- Nc1ncnn2c(-c3ccnc(C(F)F)c3)cc(N3CCC[C@@H](NC(=O)c4sc(Cl)cc4OC4CCNC4)C3)c12 (stereo partly drawn) [Example 586, N-((R)-1-(4-amino-7-(2-(difluoromethyl)pyridin-4-yl)pyrrolo[2,1-f][1,2,4]triazin-5-yl)piperidin-3-yl)-5-chloro-3-(pyrrolidin-3-yloxy)thiophene-2-carboxamide] — 2.5-fold lower, 4 nM
- Nc1ncnn2c(-c3ccnc(C(F)F)c3)cc(N3CCC[C@@H](NC(=O)c4sc(Cl)cc4OC4CCNCC4)C3)c12 [Example 588, (R)-N-(1-(4-amino-7-(2(difluoromethyl)pyridin-4-yl)pyrrolo[2,1-f][1,2,4]triazin-5-yl)piperidin-3-yl)-5-chloro-3-(piperidin-4-yloxy)thiophene-2-carboxamide] — 5-fold lower, 2 nM
- CN1CCC(Oc2cc(Cl)sc2C(=O)N[C@@H]2CCCN(c3cc(-c4ccc(C(N)=O)c(F)c4)n4ncnc(N)c34)C2)CC1 [Example 589, (R)-N-(1-(4-amino-7-(4-carbamoyl-3-fluorophenyl)pyrrolo[2,1-f][1,2,4]triazin-5-yl)piperidin-3-yl)-5-chloro-3-((1-methylpiperidin-4-yl)oxy)thiophene-2-carboxamide] — 5-fold lower, 2 nM
- NC(=O)c1ccc(-c2cc(N3CCC[C@@H](NC(=O)c4sc(Cl)cc4OC4CC5(CNC5)C4)C3)c3c(N)ncnn23)cc1F [Example 590, (R)-3-((2-azaspiro[3.3]heptan-6-yl)oxy)-N-(1-(4-amino-7-(4-carbamoyl-3-fluorophenyl)pyrrolo[2,1-f][1,2,4]triazin-5-yl)piperidin-3-yl)-5-chlorothiophene-2-carboxamide] — 5-fold lower, 2 nM
- N#Cc1ccc(-c2cc(N3CCC[C@@H](NC(=O)c4sc(Cl)cc4OC4CC5(CNC5)C4)C3)c3c(N)ncnn23)cn1 [Example 591] — 10-fold lower, 1 nM
- NC(=O)c1ccc(-c2cc(N3CCC[C@@H](NC(=O)c4sc(Cl)cc4OC4CC5(CNC5)C4)C3)c3c(N)ncnn23)cn1 [Example 592, (R)-5-(5-(3-(3-((2-azaspiro[3.3]heptan-6-yl)oxy)-5-chlorothiophene-2-carboxamido)piperidin-1-yl)-4-aminopyrrolo[2,1-f][1,2,4]triazin-7-yl)picolinamide] — 20-fold lower, 0.5 nM
- CC(=O)N1CC=C(c2cc(N3CCC[C@@H](NC(=O)c4sc(Cl)cc4OC4CC(N(C)C)C4)C3)c3c(N)ncnn23)C1 (stereo partly drawn) [Example 598, (R)-N-(1-(7-(1-acetyl-2,5-dihydro-1H-pyrrol-3-yl)-4-aminopyrrolo[2,1-f][1,2,4]triazin-5-y1)piperidin-3-y1)-5-chloro-3-(3-(dimethylamino)cyclobutoxy)thiophenc-2-carboxamide] — 1.7-fold lower, 6 nM
- CC(=O)N1CC=C(c2cc(N3CCC[C@@H](NC(=O)c4sc(Cl)cc4OC4CC(N(C)C)C4)C3)c3c(N)ncnn23)C1 (stereo partly drawn) [Example 599, (R)-N-(1-(7-(1-acetyl-2,5-dihydro-1H-pyrrol-3-yl)-4-aminopyrrolo[2,1-f][1,2,4]triazin-5-yl)piperidin-3-y1)-5-chloro-3-(3-(dimethylamino)cyclobutoxy)thiophene-2-carboxamide] — within 1.5-fold, 8 nM
- CC(=O)N1CC=C(c2cc(N3CCC[C@@H](NC(=O)c4sc(Cl)cc4OC4CCNCC4F)C3)c3c(N)ncnn23)C1 (stereo partly drawn) [Example 601, N-((R)-1-(7-(1-acetyl-2,5-dihydro-1H-pyrrol-3-yl)-4-aminopyrrolo[2,1-f][1,2,4]triazin-5-yl)piperidin-3-y1)-5-chloro-3-((3-fluoropiperidin-4-yl)oxy)thiophene-2-carboxamide] — 2.5-fold lower, 4 nM
- CC(=O)N1CC=C(c2cc(N3CCC[C@@H](NC(=O)c4sc(Cl)cc4OC4CCNCC4F)C3)c3c(N)ncnn23)C1 (stereo partly drawn) [Example 602, N-((R)-1-(7-(1-acetyl-2,5-dihydro-1H-pyrrol-3-yl)-4-aminopyrrolo[2,1-f][1,2,4]triazin-5-y1)piperidin-3-y1)-5-chloro-3-((3-fluoropiperidin-4-yl)oxy)thiophone-2-carboxamide] — 3.3-fold lower, 3 nM
- CC(=O)N1CC=C(c2cc(N3CCC[C@@H](NC(=O)c4sc(Cl)cc4OC4CCNCC4F)C3)c3c(N)ncnn23)C1 (stereo partly drawn) [Example 603, N-((R)-1-(7-(1-acetyl-2,5-dihydro-1H-pyrrol-3-y1)-4-aminopyrrolo[2,1-f][1,2,4]triazin-5-yl)piperidin-3-y1)-5-chloro-3-((3-fluoropiperidin-4-yl)oxy)thiophene~2-carboxamide] — within 1.5-fold, 7 nM
- CC(=O)N1CC=C(c2cc(N3CCC[C@@H](NC(=O)c4sc(Cl)cc4OC4CCN(C)CC4F)C3)c3c(N)ncnn23)C1 (stereo partly drawn) [Example 604, N-((R)-1-(7-(1-acetyl-2,5-dihydro-1H-pyrrol-3-y1)-4-aminopyrrolo[2,1-f][1,2,4]triazin-5-yl)piperidin-3-y1)-5-chloro-3-((3-fluoro-1-methylpiperidin-4-yl)oxy)thiophene-2-carboxamide] — 2-fold lower, 5 nM
- CC(=O)N1CC=C(c2cc(N3CCC[C@@H](NC(=O)c4sc(Cl)cc4OC4CCN(C)CC4F)C3)c3c(N)ncnn23)C1 (stereo partly drawn) [Example 605, N-((R)-1-(7-(1-acetyl-2,5-dihydro-1H-pyrrol-3-yl)-4-aminopyrrolo[2,1-f][1,2,4]triazin-5-yl)piperidin-3-y1)-5-chloro-3-((3-fluoro-1-methylpiperidin-4-yl)oxy)thiophene-2-carboxamide] — 3.3-fold lower, 3 nM

For `CN(C)CCOc1cc(Cl)sc1C(=O)N[C@@H]1CCCN(c2cc(-c3cncnc3)n3ncnc(N)c23)C1` [Example 583, (R)-N-(1-(4-amino-7-(pyrimidin-5-yl)pyrrolo[2,1-f][1,2,4]triazin-5-yl)piperidin-3-yl)-5-chloro-3-(2-(dimethylamino)ethoxy)thiophene-2-carboxamide], the IC50 was 16 nM and 26 nM.
